These results are taken from patent US4400534A, “Analgesic and anti-inflammatory agents” (Sankyo Company, Limited, priority 1980, dated 1983).

Assay [1] addresses T1, microsome prostaglandin-biosynthesis enzyme (Bos taurus, UniProt O62664).
T1 construct: microsome prostaglandin-biosynthesis enzyme (1mg/ml) fractionated from bovine seminal vesicles; from tissue; host or cells: bovine seminal vesicles (microsomes)
T1 sequence (O62664 25-600): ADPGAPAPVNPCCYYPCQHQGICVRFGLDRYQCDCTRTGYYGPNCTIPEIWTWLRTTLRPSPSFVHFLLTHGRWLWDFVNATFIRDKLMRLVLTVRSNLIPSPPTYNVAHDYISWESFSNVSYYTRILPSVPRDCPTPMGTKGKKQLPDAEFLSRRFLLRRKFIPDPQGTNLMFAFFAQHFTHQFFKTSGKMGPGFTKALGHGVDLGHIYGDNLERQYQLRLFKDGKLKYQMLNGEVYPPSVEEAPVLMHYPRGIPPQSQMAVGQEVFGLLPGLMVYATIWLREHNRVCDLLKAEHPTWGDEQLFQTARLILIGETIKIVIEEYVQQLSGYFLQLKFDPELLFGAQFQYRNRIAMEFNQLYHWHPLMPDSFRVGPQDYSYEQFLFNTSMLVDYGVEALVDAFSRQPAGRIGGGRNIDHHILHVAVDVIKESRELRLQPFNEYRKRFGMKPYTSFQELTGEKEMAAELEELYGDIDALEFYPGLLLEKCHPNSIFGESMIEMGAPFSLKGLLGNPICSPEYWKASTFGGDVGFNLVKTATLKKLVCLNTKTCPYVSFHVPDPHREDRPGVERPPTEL
As to the kind of experiment: Inhibition of PG-biosynthesis enzyme activity, bovine seminal vesicle microsome test. The class given is biochemical. The conditions noted are these: for IC50: bovine seminal vesicle microsome 1mg/ml, 14C-arachidonic acid 10 μM, pH 7.6, 30° C., 10 minutes, prostaglandin E2 measured, read-out: Inhibition of PG-biosynthesis enzyme activity, Bovine seminal vesicle microsome I50. As to the method:
Microsome tests were conducted according to the methods of E Takeguchi, E Kohno, C J Sih: Biochemistry 10, 2372 (1971), "Preparation of bovine seminal vesicle" and of R J Flower, H S Cheung, D W Cushman: Prostaglandins 4, 325 (1973), "Pharmacological action system."
The compounds under test were added to a system comprising microsome prostaglandin-biosynthesis enzyme (1mg/ml) fractionated from bovine seminal vesicles, glutathione (2 mM), epinephrine (1 mM) and trisaminomethane-hydrochloric acid buffer solution pH 7.6 (0.1 M). The mixture was left to stand at 30° C. for 5 minutes and commercially available ^14 C-arachidonic acid (10 μM, 50-60 nCi) was added. The resultant solution was maintained at 30° C. for 10 minutes and reaction then stopped by addition of 0.1 N hydrochloric acid. After extraction of the reaction mixture, the extract was separated by thin layer chromatography on silica gel to give the prostaglandin which was produced. The main product, prostaglandin E2, was measured using a liquid scintilation counter in accordance with the method of L Levine et al: Journal of Biological Chemistry (246, 6782 (1971). The inhibitory activities were assayed by the radioactivity ratio of the sample to a blank.

In assay [2] the test system is prostaglandin-biosynthesis in 3T6 cells. As to the kind of experiment: Inhibition of prostaglandin-biosynthesis in cultured cells (3T6 cells from mouse fibroblasts). In kind it is cell-based. The note with it: for IC50: Mus musculus, Fibroblast, 3T6 cells, 2 hours contact, then arachidonic acid 5 μg/ml, 1 hour, prostaglandin E2 by radioimmunoassay, read-out: Inhibition of PG-biosynthesis enzyme activity, Culture cells I50. The method, then:
3T6 cells from mouse fibroblasts were used as the cultured cells.
About six hundred thousand 3T6 cells were cultured in a plastics Petri dish (35 mm inner diameter) at 37° C. for 48 hours using a minimum-requirement medium, Darbecco (Trade Mark). After culturing, the cells were separated, washed, and then contacted with the same medium but containing the compound under test. After contacting for 2 hours, the medium was separated off and the cells washed. The medium containing 5 μg/ml of arachidonic acid and the test compound were added. Culturing was allowed to continue for 1 hour, and then the concentration of the prostaglandin E2 in the medium was assayed by radioimmunoassay.

Regarding `C[C@H](C(=O)O)c1ccc(CC2CCCC2O)cc1` (stereo partly drawn) [I, (2S)-2-[4-(2-hydroxycyclopentan-1-ylmethyl)phenyl]propionic acid], in assay [1], the IC50 is 72 µM.
Regarding `C[C@H](C(=O)O)c1ccc(C[C@H]2CCC[C@@H]2O)cc1` [II, (2S)-2-{4-[(1R,2S)-2-hydroxycyclopentan-1-ylmethyl]phenyl}propionic acid], in assay [1], the “inhibition of prostaglandin-biosynthesis enzyme activity (in words)” value is recorded as “more active than the compound (I)”. Moreover, the IC50 in assay [1] stood at 9 µM; in assay [2], 0.25 µM. Further, the “activity compared to indomethacin (in words)” value in assay [2] (cultured cells test, called in vivo) is given as “better activity in the compound (II) compared to indomethacin”.
Turning to `COc1ccc2c(c1)c(CC(=O)O)c(C)n2C(=O)c1ccc(Cl)cc1` [IM, indomethacin, reference compound], the IC50 in assay [2] was 0.34 µM.
As to `C[C@H](C(=O)O)c1ccc(CC2CCCC2O)cc1` (stereo partly shown) [II + III], the IC50 in assay [1] was determined as 13 µM.
